Laboratory results published in ChEMBL document CHEMBL3596112, “Sulfonium ions as inhibitors of the mycobacterial galactofuranosyltransferase GlfT2” (Medchemcomm, 2014).
Activity calls are given as the source filed them. The calls are words filed in the database; no cut-off is given here.

Target: T1, Galactofuranosyltransferase GlfT2 (Mycobacterium tuberculosis) (UniProt O53585)
T1 sequence (whole entry): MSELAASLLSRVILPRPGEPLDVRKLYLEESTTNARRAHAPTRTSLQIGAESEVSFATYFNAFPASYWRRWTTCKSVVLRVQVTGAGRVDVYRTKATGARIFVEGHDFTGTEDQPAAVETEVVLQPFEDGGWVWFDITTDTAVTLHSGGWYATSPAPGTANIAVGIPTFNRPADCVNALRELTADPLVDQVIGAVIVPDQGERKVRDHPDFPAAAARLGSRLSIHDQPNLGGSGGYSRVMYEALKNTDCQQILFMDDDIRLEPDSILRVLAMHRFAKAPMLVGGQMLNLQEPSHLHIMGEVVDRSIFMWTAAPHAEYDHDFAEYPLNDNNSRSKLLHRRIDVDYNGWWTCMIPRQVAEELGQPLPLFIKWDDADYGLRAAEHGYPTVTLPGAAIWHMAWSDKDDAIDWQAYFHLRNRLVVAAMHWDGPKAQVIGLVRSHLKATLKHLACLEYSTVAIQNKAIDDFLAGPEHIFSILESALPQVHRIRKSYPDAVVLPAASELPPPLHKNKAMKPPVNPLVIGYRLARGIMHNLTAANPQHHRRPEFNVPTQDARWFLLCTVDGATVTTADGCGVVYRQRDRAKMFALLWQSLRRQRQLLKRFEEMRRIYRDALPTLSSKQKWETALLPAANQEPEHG
Assay: Inhibition of Mycobacterium tuberculosis recombinant GlfT2 using beta-D-Galf-(1-5)-beta-D-Galf-(1-6)-beta-D-Galf-octyl as acceptor and UDP-Galf as donor substrate at 4 mM by coupled spectrophotometric assay

SMILES	inhibition
CC(C)C[S+]1C[C@H]([C@H](O)CO)[C@H](O)C1 (some centres undefined)	inactive
OCCCCCCCCCCCC[S+]1C[C@H]([C@H](O)CO)[C@H](O)C1 (some centres undefined)	60%
OC[C@@H](O)[C@H]1C[S+](CCc2ccccc2)C[C@H]1O (some centres undefined)	inactive
O=c1ccn([C@@H]2O[C@H](COCCC[S+]3C[C@H]([C@H](O)CO)[C@H](O)C3)[C@@H](O)[C@H]2O)c(=O)[nH]1 (some centres undefined)	inactive
OCCCCCCCC[S+]1C[C@H]([C@H](O)CO)[C@H](O)C1 (some centres undefined)	inactive
CCCCCCCC[S+]1C[C@H]([C@H](O)CO)[C@H](O)C1 (some centres undefined)	inactive
O=c1ccn([C@@H]2O[C@H](COCCCC[S+]3C[C@H]([C@H](O)CO)[C@H](O)C3)[C@@H](O)[C@H]2O)c(=O)[nH]1 (some centres undefined)	inactive
OC[C@@H](O)[C@H]1C[S+](Cc2ccccc2)C[C@H]1O (some centres undefined)	inactive
O=[N+]([O-])c1ccc(C[S+]2C[C@H]([C@H](O)CO)[C@H](O)C2)cc1 (some centres undefined)	inactive
COCC[S+]1C[C@H]([C@H](O)CO)[C@H](O)C1 (some centres undefined)	inactive
COCCCCCCCC[S+]1C[C@H]([C@H](O)CO)[C@H](O)C1 (some centres undefined)	inactive
OCCC[S+]1C[C@H]([C@H](O)CO)[C@H](O)C1 (some centres undefined)	inactive
CCC[S+]1C[C@H]([C@H](O)CO)[C@H](O)C1 (some centres undefined)	inactive
OC[C@@H](O)[C@H]1C[S+](CC2CCCCC2)C[C@H]1O (some centres undefined)	inactive
